Assay results as given in patent publication US20250154126A1, “CRYSTALLINE FORM OF SULFUR-CONTAINING ISOINDOLINE DERIVATIVE” (JIANGSU HENGRUI PHARMACEUTICALS CO., LTD., priority 2022, published 2025).
Blank lines part the entries; values can stand above or below the compound they belong to.

Legend:
NCI-H929 xenograft tumor = assay: Pharmacodynamic test: NCI-H929 xenograft tumor in CB-17 SCID mice; format: in vivo; details: for Number of remaining animals/group: 1 mg/kg qd/11 d, oral
Method: This experiment was performed to evaluate the inhibition effect of the compound of Example 1 and the control example CC-92480 on the growth of human multiple myeloma cell NCI-H929 xenograft tumor in CB-17 SCID mice.
Solutions of the compound of Example 1 and the control example CC-92480 were prepared with 5% DMSO+20% PEG400+70% (10% TPGS)+5% (1% HPMC K100LV).
Thirty CB-17 SCID female mice, purchased from Beijing Vital River Laboratory Animal Technology Co., Ltd. (certificate No. 20170011006049, SCXK (Shanghai) 2017-0011), weighing about 19 g at the time of purchase, were bred at 5 mice/cage (in a 12/12 hour light/dark cycle, at a constant temperature of 23±1° C. and humidity of 50%-60%) and had free access to food and water.
After adaptive feeding, the CB-17 SCID mice were grouped as follows:
NCI-H929 cells in a logarithmic growth phase were inoculated subcutaneously into the right flank of 30 female CB-17 SCID mice at 5×10^6 cells/mouse/100 μL (containing […] of Matrigel). After 10 days, when the tumor volume of the tumor-bearing mice reached about 200 mm^3, the mice were randomly divided into 3 groups according to the tumor volume and body weight: vehicle control group, CC-92480-1 mpk, compound of Example 1-1 mpk, with […]. The day of grouping was set as Day 0 (DO), and intragastric administration was performed once a day for 11 days (Table 2). For the tumor-bearing mice, the tumor volume was measured with a vernier caliper and the body weight was measured with a balance twice a week, and the data were recorded.
The tumor volume (V) was calculated as follows: V=1/2×a×b^2, where a and b represent length and width, respectively.
The relative tumor proliferation rate T/C (%)=(T−T0)/(C−C0)×100(%), where T and C are the tumor volume of animals at the end of the experiment in the treatment group and control group, respectively; T0 and C0 are the tumor volume of animals at the beginning of the experiment in the treatment group and control group, respectively. […]

[1] = Influencing factor stability of crystal forms (light, high temperature, high humidity, 30 days); format: physicochemical; details: for change in purity under 60° C. and light: 60° C. and light (4500 Lux); for change in purity under 60° C. and light / physicochemical stability under high humidity: open; for physicochemical stability under high humidity: high humidity conditions of 75% and 92.5%; for crystal form after influencing factor experiments: light, high temperature, high humidity
Method: Each crystal form was spread out in an open exposure setup, and the stability of the samples under conditions of light (4500 Lux), high temperature (40° C., 60° C.), and high humidity (RH 75 RH 92.5%) was examined separately. The sampling inspection period was 30 days.

[2] = Hygroscopicity study of crystal forms (dynamic vapour sorption, 25° C.); format: physicochemical; details: for Crystal form after hygroscopicity test: two cycles
Source text: According to the “9103 Guideline for Hygroscopicity for Pharmaceuticals” in Part IV of the 2015 edition of the Chinese Pharmacopoeia, descriptions of hygroscopic characteristics and definitions of hygroscopic weight gain are as follows; • Deliquescent: Absorbs sufficient moisture to form a liquid; • Extremely hygroscopic: Hygroscopic weight gain is no less than 15%; • Hygroscopic: Hygroscopic weight gain is less than 15% but no less than 2%; • Slightly hygroscopic: Hygroscopic weight gain is less than 2% but no less than 0.2%; • Non-hygroscopic or nearly non-hygroscopic: Hygroscopic weight gain is less than 0.2%.
Compound of Formula (I) (Oct. 15, 2021, Nanjing) 03881 Using the Surface Measurement Systems advantage 2, at a temperature of 25° C., and starting at a humidity of 50%, the humidity range was examined from […] to 95%, with increments of 10%. The criterion for evaluation was that the mass change dM/dT at each gradient was less than 0.002%, TMAX was 360 min, and the process was cycled twice.

[3] = Long-term/accelerated stability of crystal forms (25° C. 60% RH and 40° C. 75% RH); format: physicochemical; details: for physical and chemical stability, long-term accelerated conditions: 25° C. 60% RH and 40° C. 75% RH, six months
Method: The crystal forms D, E, Q, and U of the compound of formula (I) were respectively placed under conditions of 25° C. with 60% RH and 40° C. with 75% RH to evaluate their stability.

[4] = 92.5% RH, 14 days, open exposure
[5] = 92.5% RH, 30 days, open exposure
[6] = light 4500 Lux, 7 days, open exposure
[7] = light 4500 Lux, 14 days, open exposure
[8] = light 4500 Lux, 30 days, open exposure
[9] = 92.5% RH, 7 days, open exposure

SMILES: N#Cc1ccc(N2CCN(Cc3ccc(COc4cccc5c4CN([C@H]4CCC(=O)NC4=O)C5=O)cc3)CC2)c(F)c1 [CC-92480, reference compound]
Number of remaining animals/group (NCI-H929 xenograft tumor): 7/7

Color and character ([1]; 40° C., 7 days, open exposure): White solid
Purity % ([1]; 40° C., 7 days, open exposure): 99.5%
Color and character ([1]; 40° C., 14 days, open exposure): White solid
Purity % ([1]; 40° C., 14 days, open exposure, listed as Free crystal form Q): 99.4%
Color and character ([1]; 40° C., 30 days, open exposure): White solid
Purity % ([1]; 40° C., 30 days, open exposure, listed as Free crystal form Q): 99.1%
change in purity under 60° C. and light ([1]; 30 days): slight decrease in purity
Color and character ([1]; 60° C., 7 days, open exposure): White solid
Purity % ([1]; 60° C., 7 days, open exposure, listed as Free crystal form Q): 99.3%
Color and character ([1]; 60° C., 14 days, open exposure): White solid
Purity % ([1]; 60° C., 14 days, open exposure, listed as Free crystal form Q): 98.9%
Color and character ([1]; 60° C., 30 days, open exposure): White solid
Purity % ([1]; 60° C., 30 days, open exposure, listed as Free crystal form Q): 98.5%
Color and character ([1]; 75% RH, 7 days, open exposure): White solid
Purity % ([1]; 75% RH, 7 days, open exposure): 99.6%
Color and character ([1]; 75% RH, 14 days, open exposure): White solid
Purity % ([1]; 75% RH, 14 days, open exposure, listed as Free crystal form Q): 99.6%
Color and character ([1]; 75% RH, 30 days, open exposure): White solid
Purity % ([1]; 75% RH, 30 days, open exposure, listed as Free crystal form Q): 99.6%
Color and character [1, 4]: White solid
Purity % ([1]; 92.5% RH, 14 days, open exposure, listed as Free crystal form Q): 99.6%
Color and character [1, 5]: White solid
Purity % ([1]; 92.5% RH, 30 days, open exposure, listed as Free crystal form Q): 99.5%
Color and character ([1]; Onset, 0 days): White solid
Purity % ([1]; Onset, 0 days, listed as Free crystal form Q): 99.6%
physicochemical stability under high humidity ([1]; 30 days): good physicochemical stability
Color and character [1, 6]: White solid
Purity % ([1]; light 4500 Lux, 7 days, open exposure, listed as Free crystal form Q): 99.5%
Color and character [1, 7]: White solid
Purity % ([1]; light 4500 Lux, 14 days, open exposure, listed as Free crystal form Q): 98.8%
Color and character [1, 8]: White solid
Purity % ([1]; light 4500 Lux, 30 days, open exposure, listed as Free crystal form Q): 93.9%
crystal form after influencing factor experiments ([1]; 30 days): remain unchanged
Hygroscopic weight change 0.0% RH-95.0% RH [2]: 0.67%
Hygroscopic weight change 20% RH-80% RH [2]: 0.24%
Hygroscopicity class (20% RH-80% RH) [2]: (slightly hygroscopic)
Crystal form after hygroscopicity test [2]: Untransformed
physical and chemical stability, long-term accelerated conditions [3]: good physical and chemical stability
Purity % 1 month ([3]; 25° C., 60% RH): 99.5%
Purity % 2 months ([3]; 25° C., 60% RH): 99.5%
Purity % 3 months ([3]; 25° C., 60% RH): 99.5%
Purity % 1 month ([3]; 40° C., 75% RH): 99.5%
Purity % 2 months ([3]; 40° C., 75% RH): 99.4%
Purity % 3 months ([3]; 40° C., 75% RH): 99.4%
Purity % 6 months ([3]; 40° C., 75% RH): 99.1%
Purity % Onset [3]: 99.6%
SMILES: N#Cc1ccc(N2CCC(Sc3ccc(COc4cccc5c4CN([C@H]4CCC(=O)NC4=O)C5=O)cn3)CC2)c(F)c1 [Crystal form Q, (S)-4-(4-((5-(((2-(2,6-dioxopiperidin-3-yl)-1-oxoisoindolin-4-yl)oxy)methyl)pyridin-2-yl)thio)piperidin-1-yl)-3-fluorobenzonitrile]

Color and character ([1]; 40° C., 7 days, open exposure): White solid
Purity % ([1]; 40° C., 7 days, open exposure): 99.5%
Color and character ([1]; 40° C., 14 days, open exposure): White solid
Purity % ([1]; 40° C., 14 days, open exposure, listed as Free crystal form U): 99.3%
Color and character ([1]; 40° C., 30 days, open exposure): White solid
Purity % ([1]; 40° C., 30 days, open exposure, listed as Free crystal form U): 98.8%
change in purity under 60° C. and light ([1]; 30 days): slight decrease in purity
Color and character ([1]; 60° C., 7 days, open exposure): White solid
Purity % ([1]; 60° C., 7 days, open exposure, listed as Free crystal form U): 98.9%
Color and character ([1]; 60° C., 14 days, open exposure): White solid
Purity % ([1]; 60° C., 14 days, open exposure, listed as Free crystal form U): 98.5%
Color and character ([1]; 60° C., 30 days, open exposure): White solid
Purity % ([1]; 60° C., 30 days, open exposure, listed as Free crystal form U): 97.5%
Color and character ([1]; 75% RH, 7 days, open exposure): White solid
Purity % ([1]; 75% RH, 7 days, open exposure): 99.6%
Color and character ([1]; 75% RH, 14 days, open exposure): White solid
Purity % ([1]; 75% RH, 14 days, open exposure, listed as Free crystal form U): 99.7%
Color and character ([1]; 75% RH, 30 days, open exposure): White solid
Purity % ([1]; 75% RH, 30 days, open exposure, listed as Free crystal form U): 99.6%
Color and character [1, 9]: White solid
Purity % [1, 9]: 99.7%
Color and character [1, 4]: White solid
Purity % ([1]; 92.5% RH, 14 days, open exposure, listed as Free crystal form U): 99.7%
Color and character [1, 5]: White solid
Purity % ([1]; 92.5% RH, 30 days, open exposure, listed as Free crystal form U): 99.6%
Color and character ([1]; Onset, 0 days): White solid
Purity % ([1]; Onset, 0 days, listed as Free crystal form U): 99.7%
physicochemical stability under high humidity ([1]; 30 days): good physicochemical stability
Color and character [1, 6]: White solid
Purity % ([1]; light 4500 Lux, 7 days, open exposure, listed as Free crystal form U): 99.3%
Color and character [1, 7]: White solid
Purity % ([1]; light 4500 Lux, 14 days, open exposure, listed as Free crystal form U): 99.3%
Color and character [1, 8]: White solid
Purity % ([1]; light 4500 Lux, 30 days, open exposure, listed as Free crystal form U): 98.8%
crystal form after influencing factor experiments ([1]; 30 days): remain unchanged
Hygroscopic weight change 0.0% RH-95.0% RH [2]: 2.06%
Hygroscopic weight change 20% RH-80% RH [2]: 1.03%
Hygroscopicity class (20% RH-80% RH) [2]: (slightly hygroscopic)
Crystal form after hygroscopicity test [2]: Untransformed
physical and chemical stability, long-term accelerated conditions [3]: good physical and chemical stability
Purity % 1 month ([3]; 25° C., 60% RH): 99.7%
Purity % 2 months ([3]; 25° C., 60% RH): 99.6%
Purity % 3 months ([3]; 25° C., 60% RH): 99.6%
Purity % 1 month ([3]; 40° C., 75% RH): 99.7%
Purity % 2 months ([3]; 40° C., 75% RH): 99.6%
Purity % 3 months ([3]; 40° C., 75% RH): 99.6%
Purity % 6 months ([3]; 40° C., 75% RH): 99.5%
Purity % Onset [3]: 99.7%
SMILES: N#Cc1ccc(N2CCC(Sc3ccc(COc4cccc5c4CN([C@H]4CCC(=O)NC4=O)C5=O)cn3)CC2)c(F)c1 [Crystal form U, (S)-4-(4-((5-(((2-(2,6-dioxopiperidin-3-yl)-1-oxoisoindolin-4-yl)oxy)methyl)pyridin-2-yl)thio)piperidin-1-yl)-3-fluorobenzonitrile]

Number of remaining animals/group (NCI-H929 xenograft tumor): 7/7
SMILES: N#Cc1ccc(N2CCC(Sc3ccc(COc4cccc5c4CN([C@H]4CCC(=O)NC4=O)C5=O)cn3)CC2)c(F)c1 [Example 1, (S)-4-(4-((5-(((2-(2,6-dioxopiperidin-3-yl)-1-oxoisoindolin-4-yl)oxy)methyl)pyridin-2-yl)thio)piperidin-1-yl)-3-fluorobenzonitrile]
influence on the body weight of mice (NCI-H929 xenograft tumor; 1 mg/kg qd, 11 days, CB-17 SCID mice): no influence
